Measurements reported in patent publication US6936585B2, “Corticotropin releasing factor 2 receptor agonists” (priority 2002, dated 2005).
pEC50: −log10 of the molar value. Peptide text beside a SMILES is read from it.

Legend:
CRF2R = biological target: T1, CRF2R (Homo sapiens, UniProt Q13324); test: CRF2R agonist activation (EC50 / Emax), called comparative CRF binding; type: cell-based; details: for Emax: read-out: CRF2R Emax; for pEC50: read-out: CRF2R EC50
T1 sequence (Q13324 1-411): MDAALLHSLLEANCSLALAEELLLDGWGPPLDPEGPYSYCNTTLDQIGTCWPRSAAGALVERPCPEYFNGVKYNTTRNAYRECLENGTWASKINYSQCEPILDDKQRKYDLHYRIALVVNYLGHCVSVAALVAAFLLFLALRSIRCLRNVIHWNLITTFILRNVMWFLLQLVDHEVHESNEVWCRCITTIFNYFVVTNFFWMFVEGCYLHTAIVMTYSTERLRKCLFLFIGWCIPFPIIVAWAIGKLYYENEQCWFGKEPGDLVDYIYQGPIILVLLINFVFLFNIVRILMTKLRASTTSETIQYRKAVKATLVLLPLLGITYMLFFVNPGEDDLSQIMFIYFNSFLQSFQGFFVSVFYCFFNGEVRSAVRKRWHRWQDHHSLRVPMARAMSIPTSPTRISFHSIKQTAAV
Procedure, shortened: (§1)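 Cells expressing human CRF1R or CRF2R are exposed to peptide or vehicle control, and receptor activation is read as cAMP induction, measured in cell lysates or via a CRE-linked reporter gene.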

CRF1R = biological target: T2, CRF1R (Homo sapiens, UniProt P34998); test: CRF1R agonist activation (EC50 / Emax), called comparative CRF binding; type: cell-based; details: for Emax: read-out: CRF1R Emax; for pEC50: read-out: CRF1R EC50
T2 sequence (P34998 24-415): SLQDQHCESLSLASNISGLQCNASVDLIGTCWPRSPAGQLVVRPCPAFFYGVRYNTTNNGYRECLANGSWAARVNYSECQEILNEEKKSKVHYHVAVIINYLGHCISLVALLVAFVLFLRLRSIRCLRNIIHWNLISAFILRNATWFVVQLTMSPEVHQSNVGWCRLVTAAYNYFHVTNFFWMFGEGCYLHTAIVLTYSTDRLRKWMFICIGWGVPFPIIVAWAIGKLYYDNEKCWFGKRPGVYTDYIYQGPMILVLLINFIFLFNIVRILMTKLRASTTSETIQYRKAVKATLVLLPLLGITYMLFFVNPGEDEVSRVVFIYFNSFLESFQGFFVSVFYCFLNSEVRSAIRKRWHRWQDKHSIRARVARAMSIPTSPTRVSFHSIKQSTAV
Procedure, shortened: as §1

Row | SMILES | Emax (CRF2R) [%] | Emax (CRF1R) [%] | pEC50 (CRF2R) | pEC50 (CRF1R)
1 | CC[C@H](C)[C@H](N)C(=O)N[C@H](C(=O)N[C@@H](CC(C)C)C(=O)N[C@@H](CO)C(=O)N[C@@H](CC(C)C)C(=O)N[C@@H](CC(=O)O)C(=O)N[C@H](C(=O)N1CCC[C@H]1C(=O)N[C@H](C(=O)N[C@@H](Cc1c[nH]cn1)C(=O)N[C@@H](CC(C)C)C(=O)N[C@@H](CC(C)C)C(=O)N[C@@H](CCC(N)=O)C(=O)N[C@H](C(=O)N[C@@H](CC(C)C)C(=O)N[C@@H](CC(C)C)C(=O)N[C@@H](CCC(=O)O)C(=O)N[C@@H](CCC(N)=O)C(=O)N[C@@H](C)C(=O)N[C@@H](CCCNC(=N)N)C(=O)N[C@@H](C)C(=O)N[C@@H](CCCNC(=N)N)C(=O)N[C@@H](C)C(=O)N[C@@H](C)C(=O)N[C@@H](CCCNC(=N)N)C(=O)N[C@@H](CCC(=O)O)C(=O)N[C@@H](CCC(N)=O)C(=O)N[C@@H](C)C(=O)N[C@H](C(=O)N[C@H](C(=O)N[C@@H](CC(N)=O)C(=O)N[C@@H](C)C(=O)N[C@@H](CCCNC(=N)N)C(=O)N[C@H](C(=O)N[C@@H](CC(C)C)C(=O)N[C@@H](C)C(=O)N[C@@H](CCCNC(=N)N)C(=O)N[C@H](C(N)=O)C(C)C)[C@@H](C)CC)[C@@H](C)O)[C@@H](C)O)[C@@H](C)CC)[C@@H](C)CC)C(C)C)C(C)C [compound 371] (H-IVLSLDVPIHLLQILLEQARARAAREQATTNARILARV-NH2; N-terminus assumed) | 97 | 22 | – | –
2 | CC[C@H](C)[C@H](NC(=O)[C@H](C)NC(=O)[C@H](CC(N)=O)NC(=O)[C@H](CCC(N)=O)NC(=O)[C@H](CCC(=O)O)NC(=O)[C@H](C)NC(=O)[C@H](CCCNC(=N)N)NC(=O)[C@H](CCC(=O)O)NC(=O)[C@H](CCCNC(=N)N)NC(=O)[C@H](CCC(N)=O)NC(=O)[C@H](CO)NC(=O)[C@H](CCC(N)=O)NC(=O)[C@@H](NC(=O)[C@H](CCCNC(=N)N)NC(=O)[C@H](C)NC(=O)[C@H](CC(C)C)NC(=O)[C@H](CCC(=O)O)NC(=O)[C@H](CC(C)C)NC(=O)[C@H](CC(C)C)NC(=O)[C@@H](NC(=O)[C@H](CCCNC(=N)N)NC(=O)[C@H](CC(C)C)NC(=O)[C@H](CC(C)C)NC(=O)[C@H](CC(C)C)NC(=O)[C@H](Cc1ccccc1)NC(=O)[C@@H]1CCCN1C(=O)[C@H](CC(C)C)NC(=O)[C@H](CC(=O)O)NC(=O)[C@@H](NC(=O)[C@H](CO)NC(=O)[C@H](CC(C)C)NC(=O)[C@H](CO)NC(=O)[C@@H]1CCCN1C(=O)[C@H](CC(N)=O)NC(=O)[C@@H](N)CC(=O)O)[C@@H](C)CC)[C@@H](C)O)[C@@H](C)O)C(=O)N[C@H](C(=O)N[C@@H](Cc1ccccc1)C(=O)N[C@@H](C)C(=O)N[C@@H](CO)C(=O)N[C@H](C(N)=O)C(C)C)[C@@H](C)CC [compound 180] (H-DNPSLSIDLPFLLLRTLLELARTQSQRERAEQNAIIFASV-NH2; N-terminus assumed) | 95.7 | 99.3 | 8.50 | 6.90
3 | CC[C@H](C)[C@H](NC(=O)[C@H](CCCNC(=N)N)NC(=O)[C@H](C)NC(=O)[C@H](CC(N)=O)NC(=O)[C@H](CCC(N)=O)NC(=O)[C@H](CCC(=O)O)NC(=O)[C@H](C)NC(=O)[C@H](CCCNC(=N)N)NC(=O)[C@H](CCC(=O)O)NC(=O)[C@H](CCCNC(=N)N)NC(=O)[C@H](CCC(N)=O)NC(=O)[C@H](CO)NC(=O)[C@H](CCC(N)=O)NC(=O)[C@@H](NC(=O)[C@H](CCCCN)NC(=O)[C@H](CCC(=O)O)NC(=O)[C@H](CC(C)C)NC(=O)[C@H](CCC(=O)O)NC(=O)[C@H](CC(C)C)NC(=O)[C@H](CC(C)C)NC(=O)[C@@H](NC(=O)[C@H](CCCNC(=N)N)NC(=O)[C@H](CC(C)C)NC(=O)[C@H](CC(C)C)NC(=O)[C@H](Cc1ccccc1)NC(=O)[C@H](CC(C)C)NC(=O)[C@@H]1CCCN1C(=O)[C@H](CC(C)C)NC(=O)[C@H](CC(=O)O)NC(=O)[C@@H](NC(=O)[C@H](CO)NC(=O)[C@H](CC(C)C)NC(=O)[C@H](CO)NC(=O)[C@@H]1CCCN1)[C@@H](C)CC)[C@@H](C)O)[C@@H](C)O)C(=O)N[C@@H](Cc1ccccc1)C(=O)N[C@@H](C)C(=O)N[C@@H](CCCNC(=N)N)C(=O)N[C@H](C(N)=O)C(C)C [compound 331] (H-PSLSIDLPLFLLRTLLELEKTQSQRERAEQNARIFARV-NH2; N-terminus assumed) | 100 | 78.7 | – | –
4 | CC[C@H](C)[C@H](N)C(=O)N[C@H](C(=O)N[C@@H](CC(C)C)C(=O)N[C@@H](CO)C(=O)N[C@@H](CC(C)C)C(=O)N[C@@H](CC(=O)O)C(=O)N[C@H](C(=O)N1CCC[C@H]1C(=O)N[C@H](C(=O)NCC(=O)N[C@@H](CC(C)C)C(=O)N[C@@H](CC(C)C)C(=O)N[C@@H](CCC(N)=O)C(=O)N[C@H](C(=O)N[C@@H](CC(C)C)C(=O)N[C@@H](CC(C)C)C(=O)N[C@@H](CCC(=O)O)C(=O)N[C@@H](CCSC)C(=O)N[C@@H](C)C(=O)N[C@@H](CCCNC(=N)N)C(=O)N[C@@H](C)C(=O)N[C@@H](CCC(=O)O)C(=O)N[C@@H](CCC(N)=O)C(=O)N[C@@H](CC(C)C)C(=O)N[C@@H](C)C(=O)N[C@@H](CCC(N)=O)C(=O)N[C@@H](CCC(N)=O)C(=O)N[C@@H](C)C(=O)N[C@@H](Cc1c[nH]cn1)C(=O)N[C@@H](CO)C(=O)N[C@@H](CC(N)=O)C(=O)N[C@@H](CCCNC(=N)N)C(=O)N[C@@H](CCCCN)C(=O)N[C@@H](CC(C)C)C(=O)N[C@@H](CCSC)C(=O)N[C@@H](CCC(=O)O)C(=O)N[C@H](C(=O)N[C@H](C(N)=O)[C@@H](C)CC)[C@@H](C)CC)[C@@H](C)CC)[C@@H](C)CC)C(C)C)C(C)C [compound 164] (H-IVLSLDVPIGLLQILLEMARAEQLAQQAHSNRKLMEII-NH2; N-terminus assumed) | 92 | 26 | – | –
5 | CC[C@H](C)[C@H](N)C(=O)N[C@H](C(=O)N[C@@H](CC(C)C)C(=O)N[C@@H](CO)C(=O)N[C@@H](CC(C)C)C(=O)N[C@@H](CC(=O)O)C(=O)N[C@H](C(=O)N1CCC[C@H]1C(=O)N[C@H](C(=O)NCC(=O)N[C@@H](CC(C)C)C(=O)N[C@@H](CC(C)C)C(=O)N[C@@H](CCC(N)=O)C(=O)N[C@H](C(=O)N[C@@H](CC(C)C)C(=O)N[C@@H](CC(C)C)C(=O)N[C@@H](CCC(=O)O)C(=O)N[C@@H](CCC(N)=O)C(=O)N[C@@H](C)C(=O)N[C@@H](CCCCN)C(=O)N[C@@H](CCC(N)=O)C(=O)N[C@@H](CCCNC(=N)N)C(=O)N[C@@H](C)C(=O)N[C@@H](C)C(=O)N[C@@H](CCCNC(=N)N)C(=O)N[C@@H](CCC(=O)O)C(=O)N[C@@H](CCC(N)=O)C(=O)N[C@@H](C)C(=O)N[C@H](C(=O)N[C@H](C(=O)N[C@@H](CC(N)=O)C(=O)N[C@@H](C)C(=O)N[C@@H](CCCNC(=N)N)C(=O)N[C@H](C(=O)N[C@@H](CC(C)C)C(=O)N[C@@H](C)C(=O)N[C@@H](CCCNC(=N)N)C(=O)N[C@H](C(N)=O)C(C)C)[C@@H](C)CC)[C@@H](C)O)[C@@H](C)O)[C@@H](C)CC)[C@@H](C)CC)C(C)C)C(C)C [compound 110] (H-IVLSLDVPIGLLQILLEQAKQRAAREQATTNARILARV-NH2; N-terminus assumed) | 100 | 9 | 7.96 | < 7.00
